{"source": "patent US8993622B2", "about": "“Antiviral compounds” (Eirium AB, priority 2010, dated 2015)", "key": {"[1]": {"test": "Toxicity in the A549 cell system (XTT assay)", "type": "cell-based", "details": "human, A549 cells, read-out: 50% cytotoxic concentration (CC50)", "method": "FIG. 3. Titration of the effect of A02 on Ad5, Ad11p and the toxic effect in A549 cells following 24 h incubation with virus and/or compound A02. […] IC50 is the concentration at which the Ad replication is inhibited by 50% as determined by qPCR and CC50 is the concentration at which the cytotoxicity is 50%, i.e. 50% of the cells are viable, as determined by the XTT assay. Error bars represent the standard deviation of the means from three independent duplicate experiments."}, "HSV-1": {"test_system": "HSV-1", "test": "qPCR of herpes simplex 1 replication in GMK cells", "type": "cell-based, Herpes simplex virus 1", "details": "24 h", "method": "Same procedure as for qPCR for adenovirus quantification was followed with the exception of a few steps. Namely, 7×10^4 green monkey kidney (GMK) cells were seeded in 24-well plate the day before infection. Seventy-five virus particles of HSV-1 (stock 1351-95 P13) were added per cell. After 24 h incubation with the compound A02 at 37° C. in 5% CO2, the cells were harvested and DNA was prepared from 200 μL of the total 500 μL well-volume to include the DNA of possible released HSV-1 particles. The primers used in the qPCR assay were; Rune 1 (sense—position 137680-137697 in HSV-1 genome) (5′-GGC CTG GCT ATC CGG AGA-3′—SEQ ID NO:6) and Rune 2 (antisense—position 137742-137726 in HSV-1 genome) (5′-GCG CAG AGA CAT CGC GA-3′—SEQ ID NO:7), the final concentration in the reaction mixture of the primers were 300 nM. As in the adenovirus quantification a FAM-TAMRA labeled probe was used; Rune 3 (5′-CAGCACACGACTTGGCGTTCTGTGT-3′—SEQ ID NO:8) to a final concentration of 175 nM in the reaction mixture."}, "Ad5": {"test_system": "Ad5", "test": "microbe, parasite or virus in culture", "type": "cell-based, human adenovirus"}, "RCAd11pGFP vector": {"test_system": "RCAd11pGFP vector", "test": "Screening assay: GFP expression from RCAd11pGFP vector in K562 cells", "type": "cell-based", "details": "Human adenovirus sp., K562, 24 h, read-out: 50% inhibitory concentration (IC50), inhibition of GFP expression", "source_text": "The screening assay is based on GFP expression from the RCAd11pGFP vector in a K562 cell system. […] To be considered as a potential hit, the compound had to decrease the intensity of fluorescence by more than 80% and kill no more than 50% of the cells. […] None of the compounds selected for further study were autofluorescent.\nTo verify the hits and to exclude false positives, the compounds were serially diluted in 7 steps for dose-response analysis using the screening assay. […] Twenty-four compounds met these criteria. The distribution of fluorescence inhibition and cellular toxicity detected in the screening process of these 24 hits is summarized in FIG. 1. One of the most efficient and least toxic compounds was A02, 2-[[2-(benzoylamino)benzoyl]amino]-benzoic acid. This compound was evaluated further as a potential drug candidate."}, "cells": {"test_system": "cells", "test": "Cellular toxicity of select compounds (% dead cells, CC50)", "type": "cell-based", "details": "24 h"}, "[2]": {"test_system": "Ad5 binding to A549 cells", "test": "Binding of 35S-labelled Ad5 virions to A549 cells", "type": "cell-based, human adenovirus", "details": "15 μM", "method": "A549 cells were washed twice and detached from the culture flask with 0.05% EDTA in PBS, resuspended in culture medium, and allowed to recover for 1 h at 37° C. The cell suspension was centrifuged at room temperature at 450 g for 5 min and resuspended in PBS containing 1% FBS and 0.01% NaN3 (PBS-FBS-NaN3); 200,000 cells per well were dispensed in a 96-well microtiter plate (Nunc). The plate was placed on ice and the compound was added to final concentrations of 5 μM and 15 μM. The final concentration of DMSO was less than 1% in all samples. Five pg […] Ad5 virions (with labeling done as described previously by Segerman et al. 2003 (Journal of Virology 77:1157-1162)) were added per cell and the plate was incubated on ice on a rocking platform for 1 h. Following incubation the cells were washed three times with PBS-FBS-NaN3, pelleted by centrifugation at 800 g for 5 min at 4° C. and resuspended in 100 μl PBS. The suspension was transferred to scintillation tubes containing 2 ml scintillation liquid (Wallac OptiPhase HiSafe 3, PerkinElmer) and cell-associated radioactivity was measured as counts per minute (cpm) using a liquid scintillation counter (Wallac 1409)."}, "Tn5 transponase": {"target": "T1, Tn5 transponase (Escherichia coli, UniProt Q46731)", "T1 sequence (Q46731 1-476)": "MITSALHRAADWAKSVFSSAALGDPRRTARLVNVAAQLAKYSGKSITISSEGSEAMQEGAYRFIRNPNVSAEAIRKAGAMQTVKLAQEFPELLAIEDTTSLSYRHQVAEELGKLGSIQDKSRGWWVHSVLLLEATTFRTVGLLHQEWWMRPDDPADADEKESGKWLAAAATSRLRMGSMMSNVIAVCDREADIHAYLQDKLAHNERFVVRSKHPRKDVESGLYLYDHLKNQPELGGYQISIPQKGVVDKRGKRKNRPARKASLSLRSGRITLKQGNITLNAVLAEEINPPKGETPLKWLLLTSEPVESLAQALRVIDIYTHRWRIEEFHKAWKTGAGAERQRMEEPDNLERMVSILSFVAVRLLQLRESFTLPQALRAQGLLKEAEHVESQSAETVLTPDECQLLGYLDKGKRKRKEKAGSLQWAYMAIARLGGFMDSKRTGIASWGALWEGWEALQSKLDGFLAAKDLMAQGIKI", "details": "US 2006/0035245; cited from earlier work"}, "[3]": {"details": "Human adenovirus sp., A549, read-out: % inhibition of DNA replication (SD)"}}, "note": "Read-outs that look alike come from different tables or passages of the source.", "data": [{"smiles": "O=C(Nc1ccccc1C(=O)Nc1ccccc1C(=O)O)c1ccccc1", "note": "[Compound A02, 2-[[2-(Benzoylamino)benzoyl]amino]-benzoic acid]", "values": [{"measurement": "CC50 at 24 h", "setting": "[1]", "result": 199, "unit": "µM"}, {"measurement": "inhibitory effect on herpes simplex 1 replication", "setting": "HSV-1", "result": "about the same as observed with the representatives of all the six human adenovirus species"}, {"measurement": "effect on the replication of Ad5 (QPCR)", "setting": "Ad5; A549 cells", "result": "significant inhibitory effect"}, {"measurement": "selectivity index (SI=CC50/IC50) for Ad5", "setting": "Ad5; A549 cells", "result": 54}, {"measurement": "IC50", "setting": "Ad5; Human adenovirus sp., A549, 24 h, read-out: IC50 for Ad5 replication (QPCR)", "result": 3.7, "unit": "µM"}, {"measurement": "inhibition at 5 µM", "setting": "Ad5; [3]", "result": 72, "unit": "%"}, {"measurement": "inhibition at 15 µM", "setting": "Ad5; [3]", "result": 86, "unit": "%"}, {"measurement": "EC50", "setting": "Ad5; unidentified adenovirus, A549", "result": 3.7, "unit": "µM"}, {"measurement": "inhibition at 5 µM", "setting": "Ad5; unidentified adenovirus, A549, read-out: % Inh. at 5 μM", "result": "89 ± 5", "unit": "%"}, {"measurement": "inhibition at 15 µM", "setting": "Ad5; unidentified adenovirus, A549, read-out: % Inh. at 15 μM", "result": "96 ± 1", "unit": "%"}, {"measurement": "IC50", "setting": "RCAd11pGFP vector", "result": 28.6, "unit": "µM"}, {"measurement": "Toxicity at 30 μM (% dead cells after 24 h)", "setting": "cells; 30 μM", "result": "20 ± 7", "unit": "%"}, {"measurement": "Toxicity at 60 μM (% dead cells after 24 h)", "setting": "cells; 60 μM", "result": "29 ± 3", "unit": "%"}, {"measurement": "effect on Ad5 binding to the surface of A549 cells", "setting": "[2]", "result": "no effect"}, {"measurement": "inhibition of Tn5 transponase", "setting": "Tn5 transponase", "result": "found to inhibit"}]}]}
